Assay results taken from patent US20040127439A1, “Introduction of the wld gene for prevention of axonal degeneration in neurological diseases” (priority 2004, published 2004).
Like-named read-outs stand apart in the source and are kept apart here.

What was measured:
DRG neurites [1] = settings: for Area (DRG neuritic halo) / Length (longest neurite): Vin 0.01 μM, EGTA 2 mM
Protocol: On the day of DRG culture, the dishes are washed twice with PBS buffer (pH 7.4), filled with 550 μl medium and pre-incubated at 37 C for at least 2 hours. Fifteen-day old embryos (E15) are removed from pregnant Sprague-Dawley rats (Charles River), and spinal cords with cervical and thoracic DRGs attached are dissected into Leibovitz L-15 medium (GIBCO). Ganglia are separated from the spinal cord, stripped of their connective tissue sheaths and roots, and are then pooled and washed twice with PBS buffer (pH 7.4). DRGs are plated (4 per dish) in culture media and incubated at 37° C. in 5% carbon dioxide for 4 hours to allow DRGs to attach to the substrate. Medium is then added to bring the total volume to 1 ml. […] Calcium-free medium is prepared in the same manner, replacing MEM with S-MEM (GIBCO).
At the end of the treatment period (see below) DRGs are fixed for 30 minutes with 4% paraformaldehyde. Cultures are then rinsed with 0.1M TBS buffer, and treated sequentially with 3% H2O2, TBS-Triton, and 4% normal goat serum (NGS), each for 30 minutes at room temperature. DRGs are incubated at 4 C overnight in monoclonal antibody to MAP5 (1:500, Sigma). After washing in TBS-Triton, DRGs are incubated for 60 minutes in biotinylated secondary antibody, rinsed with TBS and reacted with avidin-biotin complex solution (ABC; Vector Labs) for one hour. Color is generated by incubation for 10 minutes in diaminobenzidine (DAB) solution, enhanced by addition of 0.025% cobalt chloride and 0.02% nickel ammonium sulfate. Stained tissue is rinsed, air dried and cover-slipped for microscopy with Crystal/Mount (Biomeda).
This method of allowing neuritic extension to proceed before addition of a neurotoxin tests the effect of the toxin on established neurites as opposed to the effect on primary neuritic outgrowth.
After day 5 of culture, the media is changed to that containing the experimental treatment. This date is defined as treatment day 0. Cultures are monitored and imaged daily using video microscopy. […] AK 295 (Z-leu-Abu-(CH2)3-4-morpholinyl, gift of Dr. James Powers, Georgia Institute of Technology), is dissolved in 100% DMSO and is then diluted to its final concentration with culture medium. The final concentration of DMSO is 0.05%. Phenylmethylsulfonyl fluoride (PMSF) is manufactured by and commercially available from Sigma.
After 6 days of treatment (11 days in culture) immunostained DRGs are quantitated for degree of axonal degeneration. Images of the DRGs and neurites are captured onto disk using a computerized video imaging system, and are analyzed using NIH Image version 1.61. DRG areas are calculated by tracing the outside circumference of the remaining culture halo. The length of the longest neurite of each DRG is measured from the center of the DRG to the distal end of the neurite, so that cultures without remaining neurites still have positive values. These quantitative data are subjected to ANOVA, with post-test correction for multiple comparisons.

axotomized neurites = assay: Wallerian degeneration of axotomized DRG neurites in culture; assay type: cell-based, rat; settings: added at the time of axotomy; EGTA 2 mM or AK295 50 μM; 72 hours after axotomy
Protocol: Five-day old cultures with extended neurites are used. Neurites are cut by excising and removing the DRG with a scalpel blade. Care should be taken to remove substantially all neurons within the DRG. At least 1 ganglion/dish was left unaxotomized to serve as a control for that group of ganglia. For experiments involving therapeutic interventions, the media is changed just prior to axotomy to media containing either EGTA (2 mM) or AK295 (50 μM). Cultures are observed daily for 72 hours after axotomy, at which time they are fixed and immunostained.
Stained cultures are scored blindly for degree of axonal degeneration. […] Any fibers with interruptions along their length are scored as degenerated. The number of surviving fibers in each DRG are counted under 200× magnification, and the DRG is given a survival score of 0-3: 0 =no fibers remaining, 1=1-4 fibers remaining, 2=5-9 fibers remaining, 3=10 or more fibers remaining.

DRG neurites [2] = assay: Effect of treatment modalities on DRG area and neuritic length in control cultures (no vincristine); assay type: cell-based, rat; settings: for Area / Length: added to 5-day old cultures, after 6 days of treatment, no vincristine; for effects on neurite growth or survival in control cultures (in words): addition to control cultures
Source text: This date is defined as treatment day 0. Cultures are monitored and imaged daily using video microscopy. […] The final concentration of DMSO is 0.05%.

[3] = Day 3 of treatment, AK295 50 μM
[4] = Day 4 of treatment, AK295 50 μM
[5] = Day 6 of treatment, AK295 50 μM, PMSF 50 μM

Question: Which “prevention of vincristine-induced axonal degeneration (in words)” value (“prevention” below) (DRG neurites [1]; AK295 1 μM (not shown)) does the source give for CCC(NC(=O)[C@H](CC(C)C)NC(=O)OCc1ccccc1)C(=O)C(=O)NCCCN1CCOCC1 (stereo partly shown) [AK295, Z-leu-Abu-(CH2)3-4-morpholinyl] here?
Answer: ineffective

Question: What about the “prevention” value (DRG neurites [1]; AK295 10 μM (not shown)) of the same molecule?
Answer: effective in preventing axonal degeneration

Question: What about the “prevention” value (DRG neurites [1]; AK295 50 μM) of the same molecule?
Answer: effective in preventing axonal degeneration

Question: And the “Area (DRG neuritic halo)” value (DRG neurites [1]; [3])?
Answer: 16.61 ± 1.18 (18) mm^2

Question: What about the “Length (longest neurite)” value (DRG neurites [1]; [3]) of the same molecule?
Answer: 2.65 ± 0.11 mm

Question: What about the “Area (DRG neuritic halo)” value (DRG neurites [1]; [4]) of the same molecule?
Answer: 14.77 ± 2.19 (14) mm^2

Question: What about the “Length (longest neurite)” value (DRG neurites [1]; [4]) of the same molecule?
Answer: 2.45 ± 0.25 mm

Question: And the “Area (DRG neuritic halo)” value (DRG neurites [1]; [5])?
Answer: 10.34 ± 2.14 (12) mm^2

Question: What about the “Length (longest neurite)” value (DRG neurites [1]; [5]) of the same molecule?
Answer: 2.05 ± 0.25 mm

Question: And the “protection against Wallerian degeneration (in words)” value (axotomized neurites)?
Answer: as protective as EGTA

Question: What about the Area (DRG neurites [2]) of the same molecule?
Answer: 49.18 ± 2.69 mm^2

Question: And the Length (DRG neurites [2])?
Answer: 4.80 ± 0.16 mm

Question: And the “effects on neurite growth or survival in control cultures (in words)” value (DRG neurites [2])?
Answer: no effects on neurite growth or survival

Question: How did the “Area (DRG neuritic halo)” value (DRG neurites [1]; [3]) turn out when O=C(O)CN(CCOCCOCCN(CC(=O)O)CC(=O)O)CC(=O)O [EGTA] was run?
Answer: 15.05 ± 1.78 (12) mm^2

Question: And the “Length (longest neurite)” value (DRG neurites [1]; [3])?
Answer: 2.62 ± 0.17 mm

Question: And the “Area (DRG neuritic halo)” value (DRG neurites [1]; [4])?
Answer: 12.97 ± 0.94 mm^2

Question: And the “Length (longest neurite)” value (DRG neurites [1]; [4])?
Answer: 2.44 ± 0.13 mm

Question: And the “Area (DRG neuritic halo)” value (DRG neurites [1]; [5])?
Answer: 13.36 ± 1.04 (14) mm^2

Question: And the “Length (longest neurite)” value (DRG neurites [1]; [5])?
Answer: 2.43 ± 0.07 mm

Question: What about the “protection against vincristine-induced axonal degeneration (in words)” value (DRG neurites [1]; EGTA 2 mM in standard media) of the same molecule?
Answer: as effective as calcium-free media

Question: What about the “protection against vincristine-induced axonal degeneration (in words)” value (DRG neurites [1]; EGTA ≦1 mM in standard media) of the same molecule?
Answer: ineffective

Question: And the “protection against Wallerian degeneration (in words)” value (axotomized neurites)?
Answer: significant protection

Question: And the Area (DRG neurites [2])?
Answer: 44.40 ± 2.74 mm^2

Question: And the Length (DRG neurites [2])?
Answer: 4.74 ± 0.18 mm

Question: What about the “effects on neurite growth or survival in control cultures (in words)” value (DRG neurites [2]) of the same molecule?
Answer: no effects on neurite growth or survival

Question: For O=S(=O)(F)Cc1ccccc1 [PMSF, Phenylmethylsulfonyl fluoride], which “Area (DRG neuritic halo)” value (DRG neurites [1]; [5]) is on record?
Answer: 0.73 ± 0.16 (43) mm^2

Question: And the “Length (longest neurite)” value (DRG neurites [1]; [5])?
Answer: 0.55 ± 0.06 mm

Question: What about the “protection against vincristine-induced axonal degeneration (in words)” value (DRG neurites [1]; PMSF 50 μM, day 6) of the same molecule?
Answer: no protective effects
